US4864023A, “Pyrido(3,2,1-IJ)-1,3,4-benzoxadiazine derivatives” (priority 1988, dated 1989)
Counter-ions that a name gives are not always drawn.

Test system: Escherichia coli ML4707
Experiment: in vivo therapeutic efficacy, lethal systemic infection in mice
Conditions: E. coli ML4707 i.p. infection, ICR mice, p.o. at time of injection, mortality 5 days; hydrochloride, 7200 min
Experimental: The in vivo antibacterial activities of pyrido[3,2,1-ij]-1,3,4-benzoxadiazine derivatives prepared by Example 5, Example 30, Example 65 and Example 66 as mentioned below were tested against lethal infection of Escherichia coli ML4707, Pseudomonas aeruginosa 4au542 and Streptococcus pneumoniae 6-001. ICR mice weighing about 20 g were infected by intraperitoneal injection of a corresponding bacterial suspension. The test compounds were administered orally or subcutaneously at the time of injection. […] The respective 50% effective dose (ED50, mg/kg) which protects 50% of the animals from death caused by infection, is shown in Table 3.

## CN1COc2c(N3CCC(N)C3)c(F)cc3c(=O)c(C(=O)O)cn1c23 (stereo not shown) [Example 66, 10-(3-amino-1-pyrrolidinyl)-9-fluoro-3-methyl-7-oxo-2,3-dihydro-7H-pyrido[3,2,1-ij]-1,3,4-benzoxadiazine-6-carboxylic acid hydrochloride]
  50% effective dose (ED50): 0.51 mg/kg
